We go through three compounds from US12673041B2, “4-aminobut-2-enamide derivatives and salt thereof” (TAIHO PHARMACEUTICAL CO., LTD., priority 2019, dated 2026).

Like-named read-outs stand apart in the source and are kept apart here. Where only a bound is given, the exact number is not on record here.

Assay [1] concerns the target T1, GMPPNP-bound KRAS G12C protein and cRAF RAS-binding domain (cRAF-RBD) (Homo sapiens, UniProt P01116, G12C).
T1 construct: made in house; host or cells: E. coli
As to the kind of experiment: Inhibitory activity on interaction between KRAS G12C and cRAF (Alpha technology). Format: biochemical. The following applies: GMPPNP-bound KRAS G12C incubated with compound at 25° C. for 1 hour, then cRAF-RBD, Alpha signal; read-out: IC50. In outline: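 GMPPNP-loaded His-KRAS G12C (aa 1-169) preincubated 1 h at 25 °C with compound (pH 7.5 Tris, 1 mM MgCl2, TCEP, Tween 20), then cRAF-RBD (aa 50-132) and Alpha reagents added for 1.5 h at RT. Inhibition scaled between DMSO (0%) and GDP-bound KRAS (100%); IC50 by curve fitting.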

Assay [2] addresses T2, activated KRAS in NCI-H358 (Homo sapiens, UniProt P01116, G12C).
T2 construct: host or cells: NCI-H358
As to the kind of experiment: Amount of activated KRAS on KRAS-G12C mutant cell line NCI-H358 (Ras GTPase Chemi ELISA). The assay is classed as cell-based. The conditions noted are these: for IC50: 1 hour with compound. The procedure:
NCI-H358 [H358, H358] (ATCC® CRL5807™), which is a KRAS-G12C mutant human lung cancer cell line, and MIA PaCa-2 (ATCC® CRL-1420™), which is a KRAS-G12C mutant human pancreas cancer cell line, were suspended in a 10% fetal bovine serum-containing RPMI1640 medium (manufactured by Thermo Fischer SCIENTIFIC), respectively. The cell suspension was seeded into a cell culture plate and cultured in an incubator containing 5% CO2 gas at 37° C. for 1 day. The lyophilized recombinant human EGF protein (R&D systems, Cat #: 236-EG-200) was dissolved in PBS to make 0.5 mg/ml solution. […] Then, the compounds obtained in the “Preparation of Compounds” section were used as test compounds and were dissolved in DMSO, and each test compound was diluted with DMSO to give a concentration 200 times the final concentration. The solution of the test compound in DMSO was diluted with the medium used for suspending cells and added to each well of the cell-culture plate to give a DMSO final concentration of 0.5%, followed by culture in an incubator containing 5% CO2 gas at 37° C. for another 1 hour. The amount of activated KRAS after 1 hour culture in the presence of the compound was measured using Ras GTPase Chemi ELISA Kit (manufactured by Active Motif). The ratio of KRAS activity was calculated from the following equation, and the concentration of the test compound at which activity was suppressed to 50% (IC50 (μM)) was determined. […] The Ratio of KRAS activity to control (%)=(T−BG)/(C−BG)×100 • T: the emission intensity in a well into which a test compound was added. • C: the emission intensity in a well into which a test compound was not added. • BG: the emission intensity in a well into which neither a test compound nor a cell suspension was added.

The target in assay [3] is T3, activated KRAS in MIA PaCa-2 (Homo sapiens, UniProt P01116, G12C).
T3 construct: host or cells: MIA PaCa-2
As to the kind of experiment: Amount of activated KRAS on KRAS-G12C mutant cell line MIA PaCa-2 (Ras GTPase Chemi ELISA). Format: cell-based. The following applies: for IC50: 1 hour with compound. The procedure:
NCI-H358 [H358, H358] (ATCC® CRL5807™), which is a KRAS-G12C mutant human lung cancer cell line, and MIA PaCa-2 (ATCC® CRL-1420™), which is a KRAS-G12C mutant human pancreas cancer cell line, were suspended in a 10% fetal bovine serum-containing RPMI1640 medium (manufactured by Thermo Fischer SCIENTIFIC), respectively. The cell suspension was seeded into a cell culture plate and cultured in an incubator containing 5% CO2 gas at 37° C. for 1 day. The lyophilized recombinant human EGF protein (R&D systems, Cat #: 236-EG-200) was dissolved in PBS to make 0.5 mg/ml solution. The EGF solution in PBS was diluted by 0.4% with the medium used for suspending cells and added to each cell-culture plate to give an EGF final concentration of 100 ng/ml, followed by leaving to stand at ambient temperature for 5 minutes. Then, the compounds obtained in the “Preparation of Compounds” section were used as test compounds and were dissolved in DMSO, and each test compound was diluted with DMSO to give a concentration 200 times the final concentration. The solution of the test compound in DMSO was diluted with the medium used for suspending cells and added to each well of the cell-culture plate to give a DMSO final concentration of 0.5%, followed by culture in an incubator containing 5% CO2 gas at 37° C. for another 1 hour. The amount of activated KRAS after 1 hour culture in the presence of the compound was measured using Ras GTPase Chemi ELISA Kit (manufactured by Active Motif). The ratio of KRAS activity was calculated from the following equation, and the concentration of the test compound at which activity was suppressed to 50% (IC50 (μM)) was determined. […] The Ratio of KRAS activity to control (%)=(T−BG)/(C−BG)×100 • T: the emission intensity in a well into which a test compound was added. • C: the emission intensity in a well into which a test compound was not added. • BG: the emission intensity in a well into which neither a test compound nor a cell suspension was added.

[4] abbreviates: NCI-H358, with EGF 100 ng/ml, read-out: IC50 NCI-H358 with EGF.
[5] abbreviates: NCI-H358, without EGF, read-out: IC50 NCI-H358 without EGF.
The mark [6] stands for this setting: MIA PaCa-2, with EGF 100 ng/ml, read-out: IC50 MIA PaCa-2 with EGF.
Where [7] appears, read: MIA PaCa-2, without EGF, read-out: IC50 MIA PaCa-2 without EGF.

T1 sequence (P01116 with tags, fused parts or gaps isoform P01116-2 G12C): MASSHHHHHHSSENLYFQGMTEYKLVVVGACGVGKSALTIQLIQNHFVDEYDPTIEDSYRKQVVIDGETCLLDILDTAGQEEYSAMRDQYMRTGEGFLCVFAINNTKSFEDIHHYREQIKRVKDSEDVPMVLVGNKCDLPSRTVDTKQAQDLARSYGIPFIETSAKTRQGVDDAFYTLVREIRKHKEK
T2 sequence (P01116 1-188 isoform P01116-2 G12C): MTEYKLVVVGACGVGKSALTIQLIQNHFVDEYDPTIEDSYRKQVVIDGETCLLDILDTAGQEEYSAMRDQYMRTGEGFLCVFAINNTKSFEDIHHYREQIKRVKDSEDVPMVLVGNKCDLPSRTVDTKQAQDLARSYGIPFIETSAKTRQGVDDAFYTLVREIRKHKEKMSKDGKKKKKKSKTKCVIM
T3 sequence (P01116 1-188 isoform P01116-2 G12C): as above

On to `C=CC(=O)N1CCN(c2ncnc3c(F)c(-c4c(O)cccc4F)c(Cl)cc23)CC1` [ARS-1620, reference compound], for which the IC50 in assay [1] is above 67000 nM; in assay [2] (setting [4]), 5400 nM; in assay [2] (setting [5]), 1400 nM; in assay [3] (setting [6]) it was 4200 nM; in assay [3] (setting [7]), 650 nM. The “KRAS inhibition activity under EGF treatment” value is “attenuated by EGF treatment” in assay [2] (NCI-H358, EGF treatment) and “attenuated by EGF treatment” in assay [3] (MIA PaCa-2, EGF treatment).
In the case of `CO[C@H]1CC[C@H](NC/C=C/C(=O)Nc2ccc(C(=O)c3ccc4c(-c5cc6ncn(C)c6cc5C)cccn34)cc2C#N)CC1` [Example 4, (E)-N-(2-cyano-4-(8-(1,6-dimethyl-1H-benzo[d]imidazol-5-yl)indolizine-3-carbonyl)phenyl)-4-(((1r,4r)-4-methoxycyclohexyl)amino)but-2-enamide], the 50% inhibitory concentration (IC50) in assay [1] came to 23 nM; in assay [2] (setting [4]), 470 nM; in assay [2] (setting [5]), 390 nM; in assay [3] (setting [6]), 440 nM; in assay [3] (setting [7]), 300 nM.
Taken in the same sequence, the figures for `CCc1nc2cc(-c3cccc(NC(=O)c4ccc(NC(=O)/C=C/CN[C@H]5CC[C@H](OC)CC5)c(C#N)c4)c3)c(C(F)(F)F)cc2n1C` [Example 1, 3-cyano-N-(3-(2-ethyl-1-methyl-6-(trifluoromethyl)-1H-benzo[d]imidazol-5-yl)phenyl)-4-((E)-4-(((1r, 4r)-4-methoxycyclohexyl)amino)but-2-enamido)benzamide] were 180 nM, 850 nM, 750 nM, 1000 nM and 780 nM.
